Assay results from patent US20050171151A1, “Methods of treating hyperlipidemia” (Allergan, Inc., priority 2001, published 2005).
Several values for one entry are separate records, joined by “and”; a condition that tells them apart may be missing. Equal values may be shown once. Entries after “also recorded” stand apart in the source; their conditions may differ. Read-outs that look alike come from different tables or passages of the source.

How the values were obtained:
serum triglycerides [1] = test: Serum triglycerides in cynomolgus monkeys treated orally (Study PT-99-10); format: in vivo
Procedure: Five male cynomologus monkeys were employed in Study PT-99-10. […] Its structure is described herein below. The remaining two were similarly treated with a vehicle to serve as control. Serum samples were collected on days 1, 8, 15, 22 and 25 for triglyceride determination. Serum samples from days 8, 15, 22 and 25 were also assayed for the concentration of AGN 194310.

[2] = cynomolgus monkey, in vivo
Procedure: Five male cynomologus monkeys were employed in Study PT-99-10. Three of the five monkeys were treated with AGN 194310 at a daily dosage of 1.25 mg/kg (orally) for a period of 25 days. […] Its structure is described herein below. The remaining two were similarly treated with a vehicle to serve as control. Serum samples were collected on days 1, 8, 15, 22 and 25 for triglyceride determination. Serum samples from days 8, 15, 22 and 25 were also assayed for the concentration of AGN 194310.

[3] = Clinical observation, body weight and food consumption of treated monkeys; format: in vivo, cynomolgus monkeys
Excerpt: AGN 194310 is an RAR antagonist or inverse agonist. Its structure is described herein below.

serum triglycerides [4] = test: Serum triglycerides (STG) in male SJL mice; format: in vivo; conditions: for Serum triglycerides, Day 4 0 hr (2 pm), group mean / Serum triglycerides, Day 3 8 a.m., group mean / Serum triglycerides, Day 4 0 hr (2 pm): 20 mg/kg oral gavage daily; for Serum triglycerides, Day 3 8 a.m., group mean / Serum triglycerides, Day 3 8 a.m.: non-fasting; for Serum triglycerides, Day 3 8 a.m. / Serum triglycerides, Day 4 0 hr (2 pm): individual male SJL mice, 20 mg/kg; for Serum triglycerides, Day 3 8 a.m.: 20 mg/kg oral gavage daily in corn oil; for Effect on non-fasting STG: Day 3, 8 a.m.
Procedure: Male SJL mice were dosed orally with vehicle, AGN 197116 (RARα antagonist) or AGN 194310 (RAR pan-antagonist) for 4 consecutive days. The structure of AGN 194310 is described herein below. The structure of AGN 197116 is: [drawing 16]
The test compounds were dissolved in corn oil and given at a dosage/volume of 20 mg/5 ml/kg. […]
(§1) On day 4, animals were fasted after dosing, starting at 8 a.m. Following 6 hours of fasting, blood samples were collected prior to intravenous injection of WR-1339 at 100 mg/5 ml/kg. Additional serum samples were collected at 1 and 2 hours after WR-1339 injection. WR-1339 is a detergent which inactivates lipoprotein lipase and thus prevents the removal of triglycerides from circulation. By measuring the increase of STG after WR-1339 administration in fasted animals, one can estimate the hepatic triglyceride (HTG) output during fasting.
(§2) Due to the lack of effect of AGN 197116 at 20 mg/kg, the dose was increased to 100 mg/kg in the same set of mice. STG was determined on day 3 prior to dosing (Day 3, 8 a.m.). […] To ensure that AGN 197116 would be bioavailable, AGN 197116 was dissolved in DMSO and given by intraperitoneal injections, once at 4 p.m. on day 3 and once at 8 a.m. on day 4, at a dosage of 100 mg/kg/injection. Administration of WR-1339 and blood collections on day 4 were similarly conducted as described above.

[5] = tested on: hepatic triglyceride output; test: Hepatic triglyceride (HTG) output: increase of STG after WR-1339 in fasted male SJL mice; format: in vivo; conditions: for Serum triglycerides, Day 4 post-WR-1339 1 hr (3 p.m.), group mean / Serum triglycerides, Day 4 post-WR-1339 2 hr (4 p.m.), group mean / Serum triglycerides, Day 4 post-WR-1339 1 hr (3 p.m.) / Serum triglycerides, Day 4 post-WR-1339 2 hr (4 p.m.): fasted; for Effect on HTG output after WR-1339 injection: 20 mg/kg orally for 4 days
Procedure: as §1, §2

Stability to light = format: physicochemical
[6] = tested on: serum lipids (triglyceride, cholesterol, LDL, HDL); conditions: for Triglyceride level after treatment: with diet and exercise
[7] = group mean, male SJL mice, after 6 hours fasting, before WR-1339
[8] = after 6 hours fasting, before WR-1339
[9] = male SJL mice, 20 mg/kg oral gavage daily, 1 hr after 100 mg/kg tyloxapol IV
[10] = male SJL mice, 20 mg/kg oral gavage daily, 2 hr after 100 mg/kg tyloxapol IV
[11] = individual male SJL mice, 20 mg/kg oral gavage daily, 1 hr after 100 mg/kg tyloxapol IV
[12] = individual male SJL mice, 20 mg/kg oral gavage daily, 2 hr after 100 mg/kg tyloxapol IV

CCc1ccc(C2=CC(C)(C)Sc3ccc(C#Cc4ccc(C(=O)O)cc4)cc32)cc1 [AGN 194310, 4-[[4-(4-ethylphenyl)-2,2-dimethyl-(2H)-thiochromen-6-yl]-ethynyl]-benzoic acid]
Serum triglycerides, Day 1 (serum triglycerides [1]; individual male cynomolgus monkeys, by gastric intubation daily, Day 1 (baseline)): 48.8 mg/dL and 52.5 mg/dL and 58.5 mg/dL
Serum triglycerides, Day 8 (serum triglycerides [1]; individual male cynomolgus monkeys, by gastric intubation daily, Day 8): 24.3 mg/dL and 21.6 mg/dL and 19.2 mg/dL
Serum triglycerides, Day 15 (serum triglycerides [1]; individual male cynomolgus monkeys, by gastric intubation daily, Day 15): 18.2 mg/dL and 30.7 mg/dL and 29.6 mg/dL
Serum triglycerides, Day 22 (serum triglycerides [1]; individual male cynomolgus monkeys, by gastric intubation daily, Day 22): 30.4 mg/dL and 20.6 mg/dL and 36.5 mg/dL
Serum triglycerides, Day 25 (serum triglycerides [1]; individual male cynomolgus monkeys, by gastric intubation daily, Day 25): 20.3 mg/dL and 23.4 mg/dL and 28.3 mg/dL
Serum triglycerides, Day 1, group mean (serum triglycerides [1]; mean of 3 monkeys, by gastric intubation, Day 1 (baseline)): 53.3 mg/dL
Serum triglycerides, Day 8, group mean (serum triglycerides [1]; mean of 3 monkeys, by gastric intubation, Day 8): 21.7 mg/dL
Serum triglycerides, Day 15, group mean (serum triglycerides [1]; mean of 3 monkeys, by gastric intubation, Day 15): 26.2 mg/dL
Serum triglycerides, Day 22, group mean (serum triglycerides [1]; mean of 3 monkeys, by gastric intubation, Day 22): 29.2 mg/dL
Serum triglycerides, Day 25, group mean (serum triglycerides [1]; mean of 3 monkeys, by gastric intubation, Day 25): 24.0 mg/dL
Effect on serum triglycerides (serum triglycerides [1]; monkeys, daily dose 1.25 mg/kg orally, 1.25 mg/kg): highly significant decrease of serum triglycerides; also recorded: lowers serum triglycerides
Average decrease of serum triglycerides compared to day 1 (baseline) (serum triglycerides [1]; per treated monkey, 1.25 mg/kg orally daily for 25 days, control monkeys increased 48% and 89%, 1.25 mg/kg): 52% and 54% and 51%
Oral absorption [2]: well absorbed
Body weight and rate of food consumption ([3]; 1.25 mg/kg orally daily, throughout the 25 day study): no change in body weight or rate of food consumption
Abnormal clinical signs ([3]; daily dose 1.25 mg/kg orally, 25 days): without any noticeable abnormal clinical signs
Serum triglycerides, Day 4 0 hr (2 pm), group mean (serum triglycerides [4]; [7]): 71.5
Serum triglycerides, Day 3 8 a.m., group mean (serum triglycerides [4]; group mean, male SJL mice): 92.7
Serum triglycerides, Day 3 8 a.m. (serum triglycerides [4]): 71.2 and 105.7 and 67.9 and 113.2 and 134.8 and 76.6 and 63.1 and 84.1 and 95.6 and 115.2
Serum triglycerides, Day 4 0 hr (2 pm) (serum triglycerides [4]; [8]): 76.6 and 76 (2×) and 57.3 and 74.7 and 80.5 and 71.5 and 73.4 and 61.1 and 67.6
Effect on non-fasting STG (serum triglycerides [4]; male SJL mice, 20 mg/kg orally): appeared to lower
Effect on fasting STG (serum triglycerides [4]; male SJL mice, 20 mg/kg orally, Day 4, 2 p.m.): but not fasting STG
Serum triglycerides, Day 4 post-WR-1339 1 hr (3 p.m.), group mean [5, 9]: 266.3
Serum triglycerides, Day 4 post-WR-1339 2 hr (4 p.m.), group mean [5, 10]: 485.6
Serum triglycerides, Day 4 post-WR-1339 1 hr (3 p.m.) [5, 11]: 216.8 and 307.2 and 294.9 and 311.7 and 238.7 and 303.9 and 260 and 252.3 and 210.9
Serum triglycerides, Day 4 post-WR-1339 2 hr (4 p.m.) [5, 12]: 328.5 and 548 and 562.9 and 577.1 and 493.8 and 508 and 550 and 542.9 and 259.1
Effect on HTG output after WR-1339 injection ([5]; male SJL mice): reduction of HTG output
Stability to normal light (Stability to light): relatively stable to normal light
Triglyceride level after treatment ([6]; Example 1, person, tablet 20 mg daily, 3 months, initial 440 mg/dL): 280 mg/dL
Triglyceride level after treatment ([6]; Example 2, person, tablet 50 mg twice daily, initial 950 mg/dL): 450 mg/dL
Side effects ([6]; human, in vivo): no side effects
Tolerability ([6]; human, in vivo): tolerates the medication well

Cc1ccc(C2=CCC(C)(C)c3cc(O)c(C(=O)Nc4ccc(C(=O)O)c(F)c4)cc32)cc1 [AGN 197116]
Effect on STG (serum triglycerides [4]; SJL mice, 100 mg/kg orally, Day 3, 8 a.m. prior to dosing): no lowering of STG was observed
Effect on STG (serum triglycerides [4]; SJL mice, 16 hours after a single intraperitoneal 100 mg/kg dose in DMSO (Day 4, 8 a.m.)): clear lowering of STG
Effect on fasting STG (serum triglycerides [4]; SJL mice, intraperitoneal 100 mg/kg/injection, after fasting (Day 4, 2 p.m.)): this effect disappeared after fasting
Serum triglycerides, Day 4 post-WR-1339 0 hr (2 pm), group mean (serum triglycerides [4]; group mean, SJL mice, 100 mg/kg oral then I.P., after 6 hours fasting, before WR-1339): 50
Serum triglycerides, Day 4 0 hr (8 am), group mean (serum triglycerides [4]; group mean, SJL mice, 16 hours after a single 100 mg/kg I.P. dose): 79
Serum triglycerides, Day 3 0 Hour, group mean (serum triglycerides [4]; group mean, SJL mice, Day 1-3 100 mg/kg oral, Day 3 prior to dosing): 118
Serum triglycerides, Day 4 0 hr (2 pm), group mean (serum triglycerides [4]; [7]): 72.4
Serum triglycerides, Day 3 8 a.m., group mean (serum triglycerides [4]; group mean, male SJL mice): 123.0
Serum triglycerides, Day 4 0 hr (8 am) (serum triglycerides [4]; individual SJL mice, 16 hours after a single 100 mg/kg I.P. dose (after Day 1-3 100 mg/kg oral), 100 mg/kg): 58 and 79 and 51 and 114 and 50 and 125
Serum triglycerides, Day 4 post-WR-1339 0 hr (2 pm) (serum triglycerides [4]; individual SJL mice, Day 1-3 100 mg/kg oral, Day 3-4 100 mg/kg I.P., after 6 hours fasting, before WR-1339, 100 mg/kg): 42 mg/dL (2×) and 36 mg/dL and 73 mg/dL and 59 mg/dL and 50 mg/dL
Serum triglycerides, Day 3 0 Hour (serum triglycerides [4]; individual SJL mice, Day 1-3 100 mg/kg oral, Day 3 prior to dosing, 100 mg/kg): 81 and 104 and 103 and 139 and 107 and 171
Serum triglycerides, Day 3 8 a.m. (serum triglycerides [4]): 128.7 and 124 and 150.3 and 110.5 and 118.6 and 124.7 and 112.5 and 106.4 and 131.4
Serum triglycerides, Day 4 0 hr (2 pm) (serum triglycerides [4]; [8]): 63.1 and 91.7 and 43 and 72.1 and 90.8 and 76 and 68.2 and 73.4 (2×)
Effect on non-fasting STG (serum triglycerides [4]; male SJL mice, 20 mg/kg orally): not observed
Effect on HTG output ([5]; SJL mice, intraperitoneal injection 100 mg/kg/injection): reduced
Serum triglycerides, Day 4 post-WR-1339 1 hr (3 p.m.), group mean ([5]; SJL mice, 100 mg/kg oral then I.P., 1 hr after WR-1339): 222
Serum triglycerides, Day 4 post-WR-1339 2 hr (4 p.m.), group mean ([5]; SJL mice, 100 mg/kg oral then I.P., 2 hr after WR-1339): 345
Serum triglycerides, Day 4 post-WR-1339 1 hr (3 p.m.), group mean [5, 9]: 334.2
Serum triglycerides, Day 4 post-WR-1339 2 hr (4 p.m.), group mean [5, 10]: 646.8
Serum triglycerides, Day 4 post-WR-1339 1 hr (3 p.m.) ([5]; individual SJL mice, Day 1-3 100 mg/kg oral, Day 3-4 100 mg/kg I.P., 1 hr after WR-1339, 100 mg/kg): 220 and 195 and 248 and 345 and 126 and 197
Serum triglycerides, Day 4 post-WR-1339 2 hr (4 p.m.) ([5]; individual SJL mice, Day 1-3 100 mg/kg oral, Day 3-4 100 mg/kg I.P., 2 hr after WR-1339, 100 mg/kg): 285 and 272 and 396 and 531 and 200 and 387
Serum triglycerides, Day 4 post-WR-1339 1 hr (3 p.m.) [5, 11]: 360.1 and 380.1 and 464.1 and 241.9 and 331.7 and 329.8 and 262.6 and 311 and 326.5
Serum triglycerides, Day 4 post-WR-1339 2 hr (4 p.m.) [5, 12]: 726.9 and 723.7 and 770.2 and 590 and 575.2 and 700.4 and 462.8 and 659.1 and 612.6
Effect on HTG output after WR-1339 injection ([5]; male SJL mice): not observed
